Where a chain is given by its changes, count along the chain named.
Key:
LCAT = test: Plasma LCAT activity assay in LCAT-deficient (lcat -/-) plasma samples; assay type: biochemical; settings: lcat -/- mutant mouse plasma, in the presence or absence of compound
Method: (§1) Activity of the modified LCAT of the invention and activities of compounds of the invention were determined by measuring change of the rate of conversion of ^3H-labeled cholesterol to cholesteryl ester (CE). In the plasma LCAT activity assay, human plasma samples were equilibrated with a trace amount of radiolabeled cholesterol at 4° C. and the rate of cholesterol esterification was measured by TLC analysis after incubation at 37° C. (Dobiasova, supra). EC50 represents a compound concentration achieving 50% of maximal activation of LCAT-mediated cholesterol esterification. Results presented in FIG. 2(A) confirm activity and specificity of the compounds of the invention on LCAT enzyme. This experiment studied the effect of Compound A in LCAT-deficient plasma samples obtained from lcat mutant mice. Ng et al. (1997) J. Biol. Chem. 272:1 5777-81.

LCAT mutant H377A = target: T1, LCAT mutant H377A (Homo sapiens, UniProt P04180, H401A); test: Activity of loss-of-function LCAT mutant H377A with or without compound; assay type: biochemical; settings: nonfunctional enzyme
T1 construct: full-length human LCAT cDNA was isolated from normal human liver cDNA library; FLAG (C); His (C); made in house; host or cells: CHO cells, secreted into serum-free medium
T1 sequence (P04180 25-440 H401A): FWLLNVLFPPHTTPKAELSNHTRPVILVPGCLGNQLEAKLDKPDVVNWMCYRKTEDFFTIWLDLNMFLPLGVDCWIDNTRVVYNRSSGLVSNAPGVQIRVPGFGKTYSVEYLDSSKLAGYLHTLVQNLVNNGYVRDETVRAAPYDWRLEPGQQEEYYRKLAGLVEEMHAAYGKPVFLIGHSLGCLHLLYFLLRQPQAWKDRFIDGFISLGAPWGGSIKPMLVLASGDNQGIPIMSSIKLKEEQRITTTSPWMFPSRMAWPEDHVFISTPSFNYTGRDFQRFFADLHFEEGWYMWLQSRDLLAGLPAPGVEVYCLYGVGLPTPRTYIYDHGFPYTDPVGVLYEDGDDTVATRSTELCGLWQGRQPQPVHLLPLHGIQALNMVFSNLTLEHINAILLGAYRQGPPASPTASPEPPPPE
From the text: (§2) For measuring compound activity using apoAI-liposome assay format, full-length human LCAT cDNA was isolated from normal human liver cDNA library (BioChain, Hayward, Calif.) with standard protocol and cloned into a pCMV-Flag vector (See Example 18). Recombinant LCAT was expressed in CHO cells and the enzyme secreted from stably transfected cells was harvested in serum-free culture medium. Recombinant LCAT identity was confirmed with anti-human LCAT and anti-Flag antibodies. The activity of recombinant LCAT enzyme was determined using apoAI-liposome substrates prepared by the standard cholate-dialysis procedure (Chen et al. (1982) J. Lipid Res. 23: 680-691. The initial mixture contained egg PC/^3H-unesterfied cholesterol/human apoAI (molar ratio of 250:12.5:0.8). After dialysis the proteoliposomes were incorporated with recombinant LCAT protein. LCAT activity was determined by measuring the conversion of radiolabeled cholesterol to cholesteryl ester and expressed in nmol CE/mL per hour.
(§3) Results summarized in FIG. 2(B) illustrate the mechanism of action of compounds of the invention on LCAT enzyme. Two loss-of-function LCAT mutants, H377A and S181A were generated, in which the critical catalytic triad of the enzyme was destroyed as described in Francone et al. (1991) Biochemistry 30: 10074-77; Peelman et al. (1998) Protein Sci. 7: 587-599; and Peelman et al. (2000) Curr. Opin. Lipidol. […]

LCAT enzyme = target: T2, LCAT enzyme (Mus musculus, UniProt P16301); test: Plasma LCAT activity after IP dosing of BALB/c mice; assay type: in vivo; settings: male, DEPG vehicle, FIG. 3
T2 construct: from tissue; host or cells: plasma of BALB/c mice dosed IP
T2 sequence (P16301 25-438): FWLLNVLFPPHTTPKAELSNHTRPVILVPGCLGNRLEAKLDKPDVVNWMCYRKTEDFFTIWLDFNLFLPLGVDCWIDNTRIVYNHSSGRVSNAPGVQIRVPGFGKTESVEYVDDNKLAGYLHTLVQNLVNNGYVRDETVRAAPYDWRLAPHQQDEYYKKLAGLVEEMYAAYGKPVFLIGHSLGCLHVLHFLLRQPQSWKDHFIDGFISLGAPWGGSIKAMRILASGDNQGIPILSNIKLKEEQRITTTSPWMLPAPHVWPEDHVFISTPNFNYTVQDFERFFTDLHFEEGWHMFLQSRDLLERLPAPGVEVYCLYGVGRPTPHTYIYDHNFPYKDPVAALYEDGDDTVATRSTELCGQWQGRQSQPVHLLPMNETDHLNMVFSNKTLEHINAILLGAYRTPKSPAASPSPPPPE
Method: as §1, with “esterification.” for “esterification. Results presented in FIG. 2(A) confirm activity and specificity of the compounds of the invention on LCAT enzyme. This experiment studied the effect of Compound A in LCAT-deficient plasma samples obtained from lcat mutant mice. Ng et al. (1997) J. Biol. Chem. 272:1 5777-81.”
(§4) Rodents used for assessing the in vivo effects of the compounds of the invention include BALB/c mice, CD1 mice, and Syrian hamsters of wild type fed with normal chew. These animals were treated with either vehicle or Compound A (3-(5-ethylthio)-1,3,4-thiadiazol-2-ylthio)pyrazine-2-carbonitrile) by IP injection. At time points (see Figures) after compound administration, blood samples were collected, plasma was immediately separated, and plasma levels of lipids, lipoprotein and LCAT activity were determined.
Briefly, BALB/c mice (male, 7 weeks old) were treated with either vehicle or Compound A by intra-peritoneal (IP) in the indicated doses. Animals were fed normal chow diet. […]

[1] = HDL particle size profiles by Gradient Gel Electrophoresis (GGE) of pooled hamster plasma; assay type: in vivo; settings: hamsters, 20 mg/kg/day, 4 days
Method: Hamsters were treated with either vehicle or Compound A as described above (20 mg/kg/day, 4 days, n=6). Plasma samples were collected and pooled for each group. An aliquot of pooled plasma was analyzed using GGE as described in Blanche et al. (1981) BBA 665: 408-419.

LCAT C184A mutant = target: T3, LCAT C184A mutant (Homo sapiens, UniProt P04180, C208A); test: Activation of recombinant LCAT C184A mutant; assay type: biochemical; settings: recombinant protein
T3 construct: full-length human LCAT cDNA was isolated from normal human liver cDNA library; FLAG (C); His (C); made in house; host or cells: CHO cells, secreted into serum-free medium
T3 sequence (P04180 25-440 C208A): T1 sequence (P04180 25-440 H401A) with C184A, A377H
From the text: as §2, §3

LCAT mutant S181A = target: T4, LCAT mutant S181A (Homo sapiens, UniProt P04180, S205A); test: Activity of loss-of-function LCAT mutant S181A with or without compound; assay type: biochemical; settings: nonfunctional enzyme
T4 construct: full-length human LCAT cDNA was isolated from normal human liver cDNA library; FLAG (C); His (C); made in house; host or cells: CHO cells, secreted into serum-free medium
T4 sequence (P04180 25-440 S205A): T1 sequence (P04180 25-440 H401A) with S181A, A377H
From the text: as §2, §3

LCAT C31A mutant = target: T5, LCAT C31A mutant (Homo sapiens, UniProt P04180, C55A); test: Activation of recombinant LCAT C31A mutant; assay type: biochemical; settings: recombinant protein
T5 construct: full-length human LCAT cDNA was isolated from normal human liver cDNA library; FLAG (C); His (C); made in house; host or cells: CHO cells, secreted into serum-free medium
T5 sequence (P04180 25-440 C55A): T1 sequence (P04180 25-440 H401A) with C31A, A377H
From the text: as §2, §3

[2] = Plasma HDL cholesterol in CD1 mice after IP dosing; assay type: in vivo; settings: IP 20 mg/kg, one dose per day, 4 days, FIG. 4
Method: as §4
CD1 male three month old mice were treated with either vehicle (control) or with Compound A by IP injection (20 mg/kg, one dose per day, 4 days, n=8). Plasma samples were collected and HDL cholesterol concentrations were determined standard reagents and assay protocol using clinical analyzer (Infinity).

[3] = Plasma TC, HDL and LpB cholesterol in Syrian hamsters after IP dosing; assay type: in vivo; settings: IP 20 mg/kg, one dose per day, 4 days, FIG. 6
Method: as §4
Hamsters (Syrian, male, 12 weeks old, n=6 per group) were treated with either vehicle (control) or Compound A via IP administration (20 mg/kg, one dose per day, 4 days). Plasma samples were collected and concentrations of total cholesterol (TC), panel B, and HDL cholesterol (panel A) were measured. LpB cholesterol contents were obtained by subtracting HDL from TC (panel C).

[4] = FPLC elution profiles of pooled hamster plasma (cholesterol, triglyceride); assay type: in vivo; settings: hamsters, IP 20 mg/kg/day, 4 days, FIG. 7
Method: Hamsters (n=6) were treated with either vehicle (control), or Compound A via IP administration (20 mg/kg/day, 4 days). Plasma samples were pooled within each treatment group, and separated by FPLC using two serially connected Superose 6 columns (Pharmacia Biotech Inc.). Cholesterol (panel A) and triglyceride (panel B) levels were determined in 0.5 ml fractions.

What does the source list for `CCSc1nnc(Sc2nccnc2C#N)s1` [Compound A]?
LCAT activity in LCAT-deficient plasma (LCAT): No LCAT activity was detected; LCAT activity of H377A mutant (LCAT mutant H377A): No activity was observed; Plasma LCAT enzyme activity (LCAT enzyme): increase LCAT enzyme activity in a dose dependent manner; HDL particle size (GGE) [1]: increase of HDL particle size; HDL particle size profile, HDL subclass 2a ([1]; GGE): 39; HDL particle size profile, HDL subclass 2b ([1]; GGE): 56; HDL particle size profile, HDL subclass 3a ([1]; GGE): 3; HDL particle size profile, HDL subclass 3b ([1]; GGE): 1; HDL particle size profile, HDL subclass 3c ([1]; GGE): 1; Response of C184A mutant to compound (LCAT activation) (LCAT C184A mutant): able to respond to the treatment in a dose dependent manner comparable to that of the wild type enzyme; LCAT activity of S181A mutant (LCAT mutant S181A): No activity was observed; Response of C31A mutant to compound (LCAT activation) (LCAT C31A mutant): failed to be activated; HDL cholesterol levels [2]: increases HDL cholesterol levels; HDL levels [3]: increases HDL levels; apoB-containing lipoprotein (LpB cholesterol = TC minus HDL) [3]: decreases apoB-containing lipoprotein; HDL particle size (FPLC) [4]: increases HDL particle size; HDL-Ch levels (FPLC) [4]: increases HDL-Ch levels; TG levels in the VLDL fraction (FPLC) [4]: decrease TG levels in the VLDL fraction
